Assay results as given in patent US11986531B2, “Compounds and methods for the targeted degradation of rapidly accelerated fibrosarcoma polypeptides” (ARVINAS OPERATIONS, INC., priority 2016, dated 2024).

Tested on: BRAF mutants (Class 1, Class 2 and Class 3)
Test: targeted degradation of BRAF mutants (summary of FIGS. 4-10)
Type: cell-based
Conditions: BRAF mutants sensitive (Class 1) and insensitive (Class 2 and Class 3) to vemurafenib

Q: For `CCCS(=O)(=O)Nc1ccc(F)c(C(=O)c2c[nH]c3ncc(-c4ccc(N5CCN(CC(=O)N[C@H](C(=O)N6C[C@H](O)C[C@H]6C(=O)NCc6ccc(-c7scnc7C)cc6)C(C)(C)C)CC5)cc4)cc23)c1F` [compound 512, (2S,4R)-1-((S)-2-(2-(4-(4-(3-(2,6-difluoro-3-(propylsulfonamido)benzoyl)-1H-pyrrolo[2,3-b]pyridin-5-yl)phenyl)piperazin-1-yl)acetamido)-3,3-dimethylbutanoyl)-4-hydroxy-N-(4-(4-methylthiazol-5-yl)benzyl)pyrrolidine-2-carboxamide], which “targeted degradation of BRAF mutants” value is on record?
A: induces targeted degradation of BRAF mutants sensitive (Class 1) and insensitive (Class 2 and Class 3) to vemurafenib
